Here are results for one substance from patent US20240342161A1, “BISBENZYLISOQUINOLINES AS CONDITIONING AGENTS FOR IMMUNE THERAPY” (priority 2023, published 2024).

Where “and” joins values, the source holds several entries; their conditions need not be identical. Identical values can stand only once.

One series concerns β-catenin. In words: β-catenin protein level in K562 cell extracts by western blot. In kind it is cell-based, human. As to the method:
The second portion was to quantitate the levels of β-catenin protein by western blot. TET's ability in an in vitro assay to reduce β-catenin expression was tested in human erythroleukemic (K562) cells. Testing was conducted by Alamo Laboratories, San Antonia, TX.
Briefly, the method to quantitate β-catenin protein by western blot was as follows: Extracts of K562 cells (untreated and treated with various concentrations of tetrandrine) were concentrated to 0.4 ml using Centricon-3 column to yield a protein concentration of approximately 2 mg/ml. Samples were mixed with 5× Laemmli buffer and loaded on 8-16% Tris-Glycine gradient gel, then polyacrylamide gel electrophoresis (PAGE) was run at 85 volts for 100 minutes at 6° C. and proteins were transferred on PVDF membrane at 70 Volts for 85 minutes at 8° C. Membrane was blocked with 5% milk in Tris-buffered Saline containing 0.1% TW-20 (TBST). Membrane was incubated with primary antibody for 18 hours at 4° C. followed by 3 washes, 5 minutes each, with TBST and incubated with secondary antibody in TBST for 2 hours at 25° C. The membrane was washed again with TBST as described above and incubated with ECL-2 substrate for 5 minutes and scanned on Kodak Image Station. After scan, blot was stripped of primary and secondary antibodies and re-probed with anti-beta Actin antibody as described above. Protein bands in WB images were quantitated using Molecular Imaging software pack MIS-4.0 software and tabulated in Excel spreadsheet.
Background: A western blot detects proteins with antibodies after separation by electrophoresis.

The next series deals with T1, CAMKII gamma (Homo sapiens, UniProt Q13555).
T1 construct: purchased Promega V3531
T1 sequence (Q13555 whole entry): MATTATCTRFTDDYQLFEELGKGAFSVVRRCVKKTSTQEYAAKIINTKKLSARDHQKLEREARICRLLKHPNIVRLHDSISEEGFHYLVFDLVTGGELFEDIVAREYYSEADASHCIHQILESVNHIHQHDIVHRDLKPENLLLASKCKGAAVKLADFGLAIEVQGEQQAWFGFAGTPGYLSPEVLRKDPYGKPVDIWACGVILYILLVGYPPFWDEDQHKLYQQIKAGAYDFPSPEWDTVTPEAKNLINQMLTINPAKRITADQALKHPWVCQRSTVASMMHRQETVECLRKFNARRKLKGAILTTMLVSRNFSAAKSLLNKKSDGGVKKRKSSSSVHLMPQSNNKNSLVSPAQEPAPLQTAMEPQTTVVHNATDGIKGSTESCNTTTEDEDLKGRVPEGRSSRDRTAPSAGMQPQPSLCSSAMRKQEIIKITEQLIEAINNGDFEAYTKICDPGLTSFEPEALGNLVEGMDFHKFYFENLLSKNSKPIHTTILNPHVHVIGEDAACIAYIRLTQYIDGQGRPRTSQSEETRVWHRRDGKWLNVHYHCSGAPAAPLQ
Briefly: CAMKII gamma kinase activity (ADP Glo). In kind it is biochemical. As to conditions: for units: duplicate reactions. As to the method: An enzymatic study was conducted to evaluate the inhibition of CAMKII gamma by ES-3000 (Tetrandrine). CAMKII gamma kinase activity was measured using […] purchased from Promega following the Promega protocol. CAMKII enzyme system purchased from Promega (V3531). ADP Glo was used for detection. Assay optimized for linearity of protein and time. Conditions for inhibitor screening 25 ng CAMKII, 20 min. incubations, inhibitor or DMSO (5%) at RT in 20 uL total volume. Inhibitor, ATP (10 or 50 μM), substrates and buffer added to tubes and reactions started with enzyme. […] Reactions terminated at 20 min. by adding ADP Glo reaction following manufactures instructions. All reactions were done in duplicate. Calculations of percent (%) inhibition determined by dividing the mean activity at each condition by the mean of the DMSO control times 100.
Background: ADP-Glo first removes unused ATP, then detects ADP through luciferase.

Another series addresses hERG (Homo sapiens, UniProt Q12809). In words: hERG inhibition, IonWorks HT electrophysiology in CHO cells stably transfected with hERG. (In general: The hERG channel carries a current that helps repolarise heart muscle cells.)
The target of the next series is P-glycoprotein (P-gp) (Homo sapiens, UniProt P08183). The note with it: cited from earlier work.
P-glycoprotein (P-gp), sequence (P08183 whole entry): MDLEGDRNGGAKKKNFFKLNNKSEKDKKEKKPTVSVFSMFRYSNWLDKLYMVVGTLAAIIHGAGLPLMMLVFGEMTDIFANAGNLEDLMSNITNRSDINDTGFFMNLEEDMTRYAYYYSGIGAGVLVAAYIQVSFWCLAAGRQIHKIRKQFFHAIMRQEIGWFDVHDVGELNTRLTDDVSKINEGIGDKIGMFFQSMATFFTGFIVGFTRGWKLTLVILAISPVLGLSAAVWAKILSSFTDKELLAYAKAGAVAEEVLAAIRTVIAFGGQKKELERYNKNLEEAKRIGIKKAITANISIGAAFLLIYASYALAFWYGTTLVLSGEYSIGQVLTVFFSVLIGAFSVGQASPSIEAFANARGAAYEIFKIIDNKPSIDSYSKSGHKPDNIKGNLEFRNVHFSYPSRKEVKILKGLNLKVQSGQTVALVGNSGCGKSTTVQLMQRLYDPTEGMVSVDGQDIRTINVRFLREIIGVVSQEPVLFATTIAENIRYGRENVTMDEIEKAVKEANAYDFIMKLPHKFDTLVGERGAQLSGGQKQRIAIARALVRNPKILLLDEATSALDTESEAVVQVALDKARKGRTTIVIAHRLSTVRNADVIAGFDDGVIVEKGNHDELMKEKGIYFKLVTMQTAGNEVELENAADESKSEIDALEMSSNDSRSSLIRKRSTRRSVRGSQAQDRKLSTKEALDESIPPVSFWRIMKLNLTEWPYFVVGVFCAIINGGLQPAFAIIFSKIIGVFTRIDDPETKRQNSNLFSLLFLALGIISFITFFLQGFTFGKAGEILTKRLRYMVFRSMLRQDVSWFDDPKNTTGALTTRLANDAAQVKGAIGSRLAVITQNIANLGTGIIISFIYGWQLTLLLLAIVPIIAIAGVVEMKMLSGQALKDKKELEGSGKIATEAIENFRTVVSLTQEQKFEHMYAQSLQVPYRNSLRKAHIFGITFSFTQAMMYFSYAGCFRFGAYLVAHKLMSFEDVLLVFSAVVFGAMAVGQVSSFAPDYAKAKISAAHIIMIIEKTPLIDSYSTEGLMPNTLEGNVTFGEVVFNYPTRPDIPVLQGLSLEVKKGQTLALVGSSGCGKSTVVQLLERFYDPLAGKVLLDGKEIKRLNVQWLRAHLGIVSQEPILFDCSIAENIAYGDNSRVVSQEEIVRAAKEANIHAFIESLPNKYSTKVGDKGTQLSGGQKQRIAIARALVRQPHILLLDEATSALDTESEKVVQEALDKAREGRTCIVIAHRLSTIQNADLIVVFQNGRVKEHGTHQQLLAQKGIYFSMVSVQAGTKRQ
Another series deals with bcr-abl. Briefly: qPCR assay for bcr-abl in plucked CML colonies. The format is cell-based, human. As to conditions: Secondary colonies, 10 μM, number of colonies; listed as Tetrandrine. As to the method: To determine whether a colony was normal (bcr-abl negative and abl positive) or diseased (bcr-abl and abl positive), a TaqMan®-based qPCR test was used. In order to score the colonies positive or negative, the following scoring strategy was performed. All colonies were assayed in duplicate for each target. If a singleton reaction yielded a Ct then the reaction scored a 1. If no Ct was recorded, a score of 0 was given. From here, we used a logic test to score the colonies into four different categories: bcr-abl and abl, abl only, bcr-abl only or both negative. In order to be placed in a category, a colony must score a 1 in both reactions. However, if a colony only scored a 1 for one out of the two reactions, this colony was removed from the analysis. […] Alternatively, if a colony scored a 1 in only both of the bcr-abl reactions or a 1 in only both the abl reactions, the colony was placed in the bcr-abl only or abl only category, respectively. If the colony scored a 0 for both targets (bcr-abl and abl) then the colony was placed in the both negative category.
In total 48 primary colonies and 31 secondary replated colonies were assessed for bcr-abl and abl using qPCR. […] Thirteen secondary colonies treated with Tetrandrine at 10 μM were assessed.

The test system of series [1] is CML colonies, secondary clonal growth. Briefly: Replating assay (secondary clonal growth of CML colonies). The note with it: colonies from original cultures with ES-3000 @ 10 μM; 24 wells. In kind it is cell-based, human.

hERG, sequence (Q12809 whole entry): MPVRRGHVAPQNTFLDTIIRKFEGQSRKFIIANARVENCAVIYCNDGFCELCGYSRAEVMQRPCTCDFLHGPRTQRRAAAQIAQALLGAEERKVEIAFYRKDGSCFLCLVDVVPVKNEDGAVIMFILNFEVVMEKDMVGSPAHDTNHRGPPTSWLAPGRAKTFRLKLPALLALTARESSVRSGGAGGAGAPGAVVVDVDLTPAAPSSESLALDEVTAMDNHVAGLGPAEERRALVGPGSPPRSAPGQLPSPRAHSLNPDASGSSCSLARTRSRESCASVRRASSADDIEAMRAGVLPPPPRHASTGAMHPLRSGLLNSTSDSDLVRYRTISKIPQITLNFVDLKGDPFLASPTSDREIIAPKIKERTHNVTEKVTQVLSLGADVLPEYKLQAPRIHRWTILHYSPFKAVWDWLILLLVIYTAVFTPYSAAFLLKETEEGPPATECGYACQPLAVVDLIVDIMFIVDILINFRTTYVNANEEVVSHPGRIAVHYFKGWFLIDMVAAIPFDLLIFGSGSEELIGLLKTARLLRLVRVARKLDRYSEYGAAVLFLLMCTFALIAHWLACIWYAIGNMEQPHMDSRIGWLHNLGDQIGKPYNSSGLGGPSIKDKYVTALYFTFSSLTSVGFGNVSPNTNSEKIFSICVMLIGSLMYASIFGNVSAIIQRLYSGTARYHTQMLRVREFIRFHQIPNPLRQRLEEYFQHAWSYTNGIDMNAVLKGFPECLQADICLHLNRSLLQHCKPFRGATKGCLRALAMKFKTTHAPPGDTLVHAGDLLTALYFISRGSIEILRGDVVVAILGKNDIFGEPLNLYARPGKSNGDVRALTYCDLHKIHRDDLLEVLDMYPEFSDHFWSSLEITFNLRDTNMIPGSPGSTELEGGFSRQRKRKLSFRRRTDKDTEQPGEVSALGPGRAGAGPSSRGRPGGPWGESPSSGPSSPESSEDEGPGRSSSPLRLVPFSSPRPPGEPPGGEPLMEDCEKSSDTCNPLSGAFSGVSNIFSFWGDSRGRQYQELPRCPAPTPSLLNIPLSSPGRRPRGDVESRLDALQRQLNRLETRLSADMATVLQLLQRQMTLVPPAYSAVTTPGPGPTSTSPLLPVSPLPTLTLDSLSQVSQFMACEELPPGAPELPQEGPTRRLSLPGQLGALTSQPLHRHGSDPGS

In the case of “6,6′,7,12-tetramethoxy-2,2′-dimethyl-berbaman [ES-3000]”, the β-catenin band entry with β-catenin (K562 cells treated with 0 to 10 uM) was “evident”. Moreover, the “convincing β-catenin band” value in the series on β-catenin (K562 cells treated with 20 and 40 uM) is “absent”. Also, in the series with β-catenin (K562 cells, 0 to 40 uM, 24 hours), the “β-catenin level, result in words” value is “lowers the β-catenin level in K562 cells in a dose dependent manner”. The mean on CAMKII gamma (10 uM ATP, inhibitor 30 uM) is recorded as 3.09; on CAMKII gamma (10 uM ATP, inhibitor 100 uM), 2.87; on CAMKII gamma (10 uM ATP, inhibitor 250 uM), 0.41; at CAMKII gamma (50 uM ATP, inhibitor 30 uM), 10.55; on CAMKII gamma (50 uM ATP, inhibitor 100 uM) it was 7.955. Further, the units is 2.75 units and 3.43 units on CAMKII gamma (10 uM ATP, inhibitor 30 uM); 2.5 units and 3.24 units on CAMKII gamma (10 uM ATP, inhibitor 100 uM); 0.34 units and 0.48 units at CAMKII gamma (10 uM ATP, inhibitor 250 uM); 10.4 units and 10.7 units at CAMKII gamma (50 uM ATP, inhibitor 30 uM); 8.81 units and 7.1 units on CAMKII gamma (50 uM ATP, inhibitor 100 uM). In addition, at CAMKII gamma (30-250 uM, 10 or 50 μM ATP), the “CAMKII gamma kinase activity inhibition, result in words” value was “inhibited CAMKII gamma kinase activity in a dose dependent manner”. The “plasma levels above which QT prolongation might be expected in subjects” value on hERG (interpretation from hERG IC50 and protein binding) is listed as “above 249 ng/mL”. Further, the “safety for cardiac conduction-related toxicity (hERG IC50 versus human Cmax)” value at hERG (utilizing Cmax from previous human clinical experience) was found to be 13 fold. In addition, the “substrate of P-gp” value at P-glycoprotein (P-gp) is reported as “not a substrate of P-gp”. In addition, the “function of P-gp” value on P-glycoprotein (P-gp) (without altering the protein expression level of Pgp) is “directly inhibits the function of P-gp in a dose-dependent manner”. For the same substance, in the series on bcr-abl, the “bcr-abl and abl colonies” value is “No colonies scored positive for bcr-abl and abl”. Also, the “Replating colony count per well” value in series [1] was found to be 1.
